Test [1] concerns the target Phosphatidylinositol 4-kinase beta (Homo sapiens, UniProt Q9UBF8). The test can be described thus: Inhibition of N-terminal GST-tagged human full length recombinant PI4K3beta expressed in Sf9 cells using D-myo-phosphatidylinositol substrate and ATP incubated for 45 mins by ADP-Glo kinase Assay.
Test [2] has as its target Phosphatidylinositol 4,5-bisphosphate 3-kinase catalytic subunit beta isoform (Homo sapiens, UniProt P42338). Put plainly: Inhibition of PI3Kbeta (unknown origin) pre-incubated for 20 mins before phosphatidylinositol 4, 5-bisphosphate substrate addition by kinase-glo plus luminescence assay. A general note: In Kinase-Glo more light means more ATP remaining.
The target in test [3] is Phosphatidylinositol 4,5-bisphosphate 3-kinase catalytic subunit alpha isoform (Homo sapiens, UniProt P42336). The test can be described thus: Inhibition of PI3Kalpha (unknown origin) pre-incubated for 20 mins before phosphatidylinositol 4, 5-bisphosphate substrate addition by kinase-glo plus luminescence assay.
Phosphatidylinositol 4,5-bisphosphate 3-kinase catalytic subunit alpha isoform, sequence (P42336 whole entry, canonical isoform): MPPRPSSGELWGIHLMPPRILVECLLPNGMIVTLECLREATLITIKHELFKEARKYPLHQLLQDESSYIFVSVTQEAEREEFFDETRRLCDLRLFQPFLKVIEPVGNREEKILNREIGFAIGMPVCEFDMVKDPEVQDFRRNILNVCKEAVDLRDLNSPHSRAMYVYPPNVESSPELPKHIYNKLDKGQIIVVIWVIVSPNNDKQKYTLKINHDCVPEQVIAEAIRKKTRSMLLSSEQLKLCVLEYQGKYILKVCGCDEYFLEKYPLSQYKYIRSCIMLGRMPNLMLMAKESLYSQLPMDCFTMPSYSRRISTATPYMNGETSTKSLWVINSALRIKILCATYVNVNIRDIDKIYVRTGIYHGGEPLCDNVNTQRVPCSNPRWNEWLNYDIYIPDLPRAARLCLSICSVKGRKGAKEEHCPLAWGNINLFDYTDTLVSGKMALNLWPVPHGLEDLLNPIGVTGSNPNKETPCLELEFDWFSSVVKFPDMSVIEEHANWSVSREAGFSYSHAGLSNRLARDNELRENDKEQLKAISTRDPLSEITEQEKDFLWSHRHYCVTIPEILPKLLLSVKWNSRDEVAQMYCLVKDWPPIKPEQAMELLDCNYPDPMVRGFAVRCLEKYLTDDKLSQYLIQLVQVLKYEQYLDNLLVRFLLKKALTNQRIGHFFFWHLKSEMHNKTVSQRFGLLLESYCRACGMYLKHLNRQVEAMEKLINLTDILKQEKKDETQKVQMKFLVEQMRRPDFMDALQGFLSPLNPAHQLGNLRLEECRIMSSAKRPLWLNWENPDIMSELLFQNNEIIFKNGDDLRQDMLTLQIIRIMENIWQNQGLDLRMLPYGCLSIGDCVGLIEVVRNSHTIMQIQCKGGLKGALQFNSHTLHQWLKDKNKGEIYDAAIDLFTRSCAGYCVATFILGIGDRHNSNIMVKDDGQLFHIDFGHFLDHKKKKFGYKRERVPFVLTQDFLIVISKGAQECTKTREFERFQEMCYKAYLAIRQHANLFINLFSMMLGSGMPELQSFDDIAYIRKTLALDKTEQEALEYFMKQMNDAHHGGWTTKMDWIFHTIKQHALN
The target in test [4] is T1, Phosphatidylinositol 4,5-bisphosphate 3-kinase catalytic subunit delta isoform (Homo sapiens, UniProt O00329).
T1 sequence (O00329 whole entry): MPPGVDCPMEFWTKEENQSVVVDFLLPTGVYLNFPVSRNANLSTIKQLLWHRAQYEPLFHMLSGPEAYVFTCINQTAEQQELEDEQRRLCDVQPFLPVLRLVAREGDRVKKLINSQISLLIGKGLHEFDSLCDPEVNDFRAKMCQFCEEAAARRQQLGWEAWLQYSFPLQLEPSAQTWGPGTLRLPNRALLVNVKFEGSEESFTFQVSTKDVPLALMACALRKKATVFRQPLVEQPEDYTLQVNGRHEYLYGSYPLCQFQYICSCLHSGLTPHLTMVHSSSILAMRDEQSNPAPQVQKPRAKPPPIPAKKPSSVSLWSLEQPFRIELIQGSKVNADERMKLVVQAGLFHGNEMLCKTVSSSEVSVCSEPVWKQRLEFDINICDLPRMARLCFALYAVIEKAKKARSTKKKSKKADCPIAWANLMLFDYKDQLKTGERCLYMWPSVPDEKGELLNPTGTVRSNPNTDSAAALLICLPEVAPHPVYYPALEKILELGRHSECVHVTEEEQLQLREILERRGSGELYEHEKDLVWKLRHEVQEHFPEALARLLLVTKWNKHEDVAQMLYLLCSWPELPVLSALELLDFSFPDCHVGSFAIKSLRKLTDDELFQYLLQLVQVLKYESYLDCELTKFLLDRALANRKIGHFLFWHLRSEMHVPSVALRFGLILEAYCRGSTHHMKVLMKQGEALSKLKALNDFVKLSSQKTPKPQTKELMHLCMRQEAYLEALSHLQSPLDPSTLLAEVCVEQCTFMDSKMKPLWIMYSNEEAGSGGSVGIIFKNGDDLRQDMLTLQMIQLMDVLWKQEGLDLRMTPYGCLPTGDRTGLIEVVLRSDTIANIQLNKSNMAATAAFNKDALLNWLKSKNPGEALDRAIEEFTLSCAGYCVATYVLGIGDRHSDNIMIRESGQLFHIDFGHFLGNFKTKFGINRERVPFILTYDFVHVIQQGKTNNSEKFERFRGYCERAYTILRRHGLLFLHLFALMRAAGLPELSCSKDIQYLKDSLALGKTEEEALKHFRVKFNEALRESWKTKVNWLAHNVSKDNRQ
The test can be described thus: Inhibition of PI3Kdelta (unknown origin) pre-incubated for 20 mins before phosphatidylinositol 4, 5-bisphosphate substrate addition by kinase-glo plus luminescence assay.

In test [5] the target is Phosphatidylinositol 4,5-bisphosphate 3-kinase catalytic subunit gamma isoform (Homo sapiens, UniProt P48736). Put plainly: Inhibition of PI3Kgamma (unknown origin) pre-incubated for 20 mins before phosphatidylinositol 4, 5-bisphosphate substrate addition by kinase-glo plus luminescence assay.
Phosphatidylinositol 4,5-bisphosphate 3-kinase catalytic subunit gamma isoform, sequence (P48736 whole entry, canonical isoform): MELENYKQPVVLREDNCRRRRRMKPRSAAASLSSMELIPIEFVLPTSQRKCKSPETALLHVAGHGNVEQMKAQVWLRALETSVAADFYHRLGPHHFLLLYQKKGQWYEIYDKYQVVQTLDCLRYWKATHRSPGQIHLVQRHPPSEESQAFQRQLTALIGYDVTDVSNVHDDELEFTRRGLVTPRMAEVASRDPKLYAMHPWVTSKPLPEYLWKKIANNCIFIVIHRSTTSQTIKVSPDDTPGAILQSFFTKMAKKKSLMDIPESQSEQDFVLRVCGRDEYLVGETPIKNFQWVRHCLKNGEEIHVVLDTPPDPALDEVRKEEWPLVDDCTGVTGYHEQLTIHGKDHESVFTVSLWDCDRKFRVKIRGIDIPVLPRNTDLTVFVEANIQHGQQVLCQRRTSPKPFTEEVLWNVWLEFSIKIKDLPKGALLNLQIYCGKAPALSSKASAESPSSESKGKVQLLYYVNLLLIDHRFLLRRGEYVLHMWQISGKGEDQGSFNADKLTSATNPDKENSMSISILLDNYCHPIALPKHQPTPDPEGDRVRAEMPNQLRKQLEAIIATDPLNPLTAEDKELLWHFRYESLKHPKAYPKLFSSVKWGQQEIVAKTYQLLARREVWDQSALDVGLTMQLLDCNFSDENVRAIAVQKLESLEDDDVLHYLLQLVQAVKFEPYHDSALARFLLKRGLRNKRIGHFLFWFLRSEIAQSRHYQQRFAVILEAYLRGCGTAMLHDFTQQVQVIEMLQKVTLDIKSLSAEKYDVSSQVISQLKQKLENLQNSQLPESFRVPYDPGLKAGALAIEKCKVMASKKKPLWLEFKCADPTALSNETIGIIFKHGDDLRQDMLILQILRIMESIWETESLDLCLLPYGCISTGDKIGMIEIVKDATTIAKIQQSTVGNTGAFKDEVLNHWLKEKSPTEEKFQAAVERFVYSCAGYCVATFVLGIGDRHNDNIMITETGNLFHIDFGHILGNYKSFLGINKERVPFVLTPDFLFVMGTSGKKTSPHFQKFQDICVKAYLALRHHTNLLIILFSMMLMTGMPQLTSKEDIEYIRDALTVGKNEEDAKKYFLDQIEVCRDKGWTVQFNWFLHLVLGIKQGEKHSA
The target in test [6] is Phosphatidylinositol 4-kinase alpha (Homo sapiens, UniProt P42356). Put plainly: Inhibition of N-terminal FLAG-tagged human full length recombinant PI4K3alpha using D-myo-phosphatidylinositol substrate and ATP incubated for 45 mins by ADP-Glo kinase Assay.
In test [7] the target is Phosphatidylinositol 4-phosphate 5-kinase type-1 gamma (Homo sapiens, UniProt O60331). Put plainly: Inhibition of PIP5K1C (unknown origin) using D-myo-phosphatidylinositol 4-phosphate substrate and ATP by ADP-Glo kinase Assay.
Phosphatidylinositol 4-phosphate 5-kinase type-1 gamma, sequence (O60331 whole entry): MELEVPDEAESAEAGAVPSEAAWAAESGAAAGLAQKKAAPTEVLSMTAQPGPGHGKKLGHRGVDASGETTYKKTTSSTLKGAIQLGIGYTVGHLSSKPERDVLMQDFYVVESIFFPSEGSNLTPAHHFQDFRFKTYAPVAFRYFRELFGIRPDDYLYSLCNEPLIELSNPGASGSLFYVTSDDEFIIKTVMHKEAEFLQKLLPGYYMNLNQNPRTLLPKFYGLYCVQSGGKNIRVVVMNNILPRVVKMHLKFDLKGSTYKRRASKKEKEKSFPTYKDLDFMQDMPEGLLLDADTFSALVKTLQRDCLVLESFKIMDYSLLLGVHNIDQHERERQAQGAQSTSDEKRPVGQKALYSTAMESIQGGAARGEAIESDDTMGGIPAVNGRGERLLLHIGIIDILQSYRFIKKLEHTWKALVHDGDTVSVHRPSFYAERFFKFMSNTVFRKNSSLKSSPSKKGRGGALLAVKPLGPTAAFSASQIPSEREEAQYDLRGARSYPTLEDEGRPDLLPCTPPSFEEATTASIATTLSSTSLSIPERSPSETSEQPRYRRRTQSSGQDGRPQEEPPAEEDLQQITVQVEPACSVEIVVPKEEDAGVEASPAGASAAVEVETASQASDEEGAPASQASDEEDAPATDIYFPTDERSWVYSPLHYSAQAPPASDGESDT
The nature of test [8]: Inhibition of PI4K3alpha in mouse NIH3T3 cells co-expressing PDGFRbeta receptor assessed as inhibition of PDGF-induced IP1 accumulation incubated for 30 mins by HTRF based assay. It is filed as cell-based. The following applies: NIH3T3, 0.5 h. In general terms: TR-FRET usually uses a lanthanide donor and a delayed reading to cut background.

Molecules are shown by their SMILES.

Phosphatidylinositol 4-kinase beta, sequence (Q9UBF8 whole entry, canonical isoform): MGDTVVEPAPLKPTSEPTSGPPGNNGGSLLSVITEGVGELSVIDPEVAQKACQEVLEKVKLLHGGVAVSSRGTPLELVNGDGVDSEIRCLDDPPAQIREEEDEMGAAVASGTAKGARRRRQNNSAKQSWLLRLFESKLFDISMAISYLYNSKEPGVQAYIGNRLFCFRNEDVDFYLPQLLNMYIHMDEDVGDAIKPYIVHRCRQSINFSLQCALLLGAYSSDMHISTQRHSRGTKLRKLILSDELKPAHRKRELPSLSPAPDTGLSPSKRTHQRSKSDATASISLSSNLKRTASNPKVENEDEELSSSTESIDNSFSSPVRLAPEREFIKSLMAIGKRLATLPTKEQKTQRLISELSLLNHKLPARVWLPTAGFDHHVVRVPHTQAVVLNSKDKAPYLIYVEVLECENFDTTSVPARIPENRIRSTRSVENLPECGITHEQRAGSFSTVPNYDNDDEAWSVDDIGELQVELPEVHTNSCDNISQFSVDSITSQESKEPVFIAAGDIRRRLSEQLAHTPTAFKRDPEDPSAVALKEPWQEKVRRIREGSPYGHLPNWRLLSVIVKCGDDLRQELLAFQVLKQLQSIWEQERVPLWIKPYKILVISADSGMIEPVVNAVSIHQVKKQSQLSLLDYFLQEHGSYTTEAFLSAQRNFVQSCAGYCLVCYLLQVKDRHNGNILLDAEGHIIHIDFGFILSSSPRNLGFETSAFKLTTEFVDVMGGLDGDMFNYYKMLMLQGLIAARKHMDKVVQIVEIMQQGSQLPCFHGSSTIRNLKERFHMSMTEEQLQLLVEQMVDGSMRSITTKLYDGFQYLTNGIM
Phosphatidylinositol 4,5-bisphosphate 3-kinase catalytic subunit beta isoform, sequence (P42338 whole entry, canonical isoform): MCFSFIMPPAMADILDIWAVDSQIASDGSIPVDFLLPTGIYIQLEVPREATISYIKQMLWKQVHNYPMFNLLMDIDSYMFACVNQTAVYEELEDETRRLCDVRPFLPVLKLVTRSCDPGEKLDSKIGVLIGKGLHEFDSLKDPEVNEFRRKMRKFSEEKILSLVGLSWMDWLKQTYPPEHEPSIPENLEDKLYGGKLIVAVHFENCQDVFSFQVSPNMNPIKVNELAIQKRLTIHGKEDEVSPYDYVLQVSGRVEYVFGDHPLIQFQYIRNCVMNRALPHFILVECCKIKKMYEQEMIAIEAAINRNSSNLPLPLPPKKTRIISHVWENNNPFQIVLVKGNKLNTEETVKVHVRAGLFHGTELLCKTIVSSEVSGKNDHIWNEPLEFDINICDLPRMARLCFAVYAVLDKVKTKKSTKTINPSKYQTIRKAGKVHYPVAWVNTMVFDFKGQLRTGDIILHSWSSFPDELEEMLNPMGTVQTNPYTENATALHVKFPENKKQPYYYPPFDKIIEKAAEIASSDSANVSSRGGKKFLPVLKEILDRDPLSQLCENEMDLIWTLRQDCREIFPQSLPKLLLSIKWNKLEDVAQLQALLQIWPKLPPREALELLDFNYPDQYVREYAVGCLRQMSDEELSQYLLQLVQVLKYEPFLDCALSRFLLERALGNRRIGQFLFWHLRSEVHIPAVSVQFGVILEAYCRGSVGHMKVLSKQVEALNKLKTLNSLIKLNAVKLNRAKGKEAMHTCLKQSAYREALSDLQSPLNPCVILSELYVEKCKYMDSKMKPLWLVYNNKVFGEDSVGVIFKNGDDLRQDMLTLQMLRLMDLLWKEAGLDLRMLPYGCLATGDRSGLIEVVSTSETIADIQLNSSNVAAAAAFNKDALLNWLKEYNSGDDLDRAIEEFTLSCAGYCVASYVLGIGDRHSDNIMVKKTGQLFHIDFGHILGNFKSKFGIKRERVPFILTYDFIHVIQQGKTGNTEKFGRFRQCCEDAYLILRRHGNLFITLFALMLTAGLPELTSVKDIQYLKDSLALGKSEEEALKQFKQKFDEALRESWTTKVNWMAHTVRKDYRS

`CCOc1ccc(-c2ccc3nc(N)sc3c2)cn1`: the half-inhibitory concentration (IC50) (usually the point on the concentration scale where inhibition reaches its midpoint) is 631 nM in test [1]; 6.31 µM in test [2]; 1.58 µM in test [3]; 3.98 µM in test [4]; 2 µM in test [5]; 158 nM in test [6]. Besides, the IC50 in test [7] is > 100 µM.
Turning to `CCSc1ccc(-c2ccc3nc(N)sc3c2)cn1`, the IC50 is 631 nM in test [1]; 5.01 µM in test [2]; 1.26 µM in test [3]; 2 µM in test [4]; 1 µM in test [5]; 100 nM in test [6]. Further, the IC50 in test [7] is > 100 µM.
`CNCc1ccc(-c2ccc3nc(N)sc3c2)cn1`: the IC50 in test [1] is 3160 nM; in test [2] it was 79.4 µM; in test [3], 63.1 µM; in test [4], 63.1 µM; in test [5], 50.1 µM; in test [6], 2510 nM. Moreover, the IC50 in test [7] was > 100 µM.
With `CC(C)Oc1ccc(-c2ccc3nc(N)sc3c2)cn1`, the IC50 in test [1] was 1260 nM; in test [2] it was 31.6 µM; in test [3], 5.01 µM; in test [4], 12.6 µM; in test [5], 12.6 µM; in test [6], 79.4 nM. Besides, the IC50 in test [7] was > 100 µM.
In the case of `CCNc1ccc(-c2ccc3nc(N)sc3c2)cn1`, the IC50 is 1000 nM in test [1]; 12.6 µM in test [2]; 2 µM in test [3]; 6.31 µM in test [4]; 3.98 µM in test [5]; 631 nM in test [6]. Besides, the IC50 in test [7] is 31.6 µM.
As for `CCN(C)c1ccc(-c2ccc3nc(N)sc3c2)cn1`, the IC50 is 1580 nM in test [1]; 39.8 µM in test [2]; 6.31 µM in test [3]; 12.6 µM in test [4]; 3.98 µM in test [5]; 631 nM in test [6]. In addition, the concentration for half-maximal inhibition (IC50) in test [7] was > 100 µM.
Take `Cc1ccc(-c2ccc3nc(N)sc3c2)cn1`: the 50% inhibitory concentration (IC50) in test [1] was 501 nM; in test [2] it was 2.51 µM; in test [3], 1 µM; in test [4] it was 1.26 µM; in test [5], 1.26 µM; in test [6] it was 1580 nM. In addition, the half-inhibitory concentration (IC50) in test [7] is > 100 µM.
As to `Nc1nc2ccc(-c3ccc(C(F)(F)F)nc3)cc2s1`, the concentration for half-maximal inhibition (IC50) in test [1] was 1580 nM; in test [2] it was 3.98 µM; in test [3], 2 µM; in test [4] it was 1 µM; in test [5], 1 µM; in test [6], 15800 nM. Besides, in test [7], the IC50 was > 100 µM.
`CS(=O)(=O)c1ccc(-c2ccc3nc(N)sc3c2)cn1`: the IC50 in test [1] is 7940 nM; in test [2], 39.8 µM; in test [3], 158 µM; in test [4], 12.6 µM; in test [5], 10 µM; in test [6], 25100 nM. In test [7], this compound showed an IC50 of 10 µM.
Regarding `Nc1nc2ccc(-c3ccc(OCCO)nc3)cc2s1`, the IC50 in test [1] is 501 nM; in test [2], 6.31 µM; in test [3] it was 1.26 µM; in test [4], 2 µM; in test [5], 1.26 µM; in test [6], 316 nM. The IC50 in test [7] was > 100 µM.
As for `COCCOc1ccc(-c2ccc3nc(N)sc3c2)cn1`, the IC50 was 1000 nM in test [1]; 7.94 µM in test [2]; 2.51 µM in test [3]; 6.31 µM in test [4]; 3.16 µM in test [5]; 316 nM in test [6]. Also, the IC50 in test [7] is > 100 µM.
For `Nc1nc2ccc(-c3ccn(CC4CC4)c(=O)c3)cc2s1`, the concentration for half-maximal inhibition (IC50) was 501 nM in test [8]; 1580 nM in test [1]; > 126 µM in test [2]; 6.31 µM in test [3]; 12.6 µM in test [4]; 1.58 µM in test [5]. The values for the half-inhibitory concentration (IC50) in test [6] and in test [7] were 6.31 nM and > 79.4 µM, respectively.
As for `O=c1cc(-c2ccc3nc(NCC4CCOCC4)sc3c2)ccn1CC1CC1`, the IC50 is 794 nM in test [8]; 398 nM in test [1]; > 200 µM in test [2]; > 200 µM in test [3]; 100 µM in test [4]; 15.8 µM in test [5]. The IC50 was 5.01 nM in test [6] and > 100 µM in test [7].
In the case of `C[C@@H](Nc1nc2ccc(-c3ccn(CC4CC4)c(=O)c3)cc2s1)C1CCOCC1`, the IC50 in test [8] was 631 nM; in test [1], 316 nM; in test [2], > 200 µM; in test [3], > 200 µM; in test [4] it was > 200 µM; in test [5] it was 63.1 µM. The results for the IC50 in test [6] and in test [7] were 7.94 nM and > 100 µM, respectively.
In the case of `C[C@H](Nc1nc2ccc(-c3ccn(CC4CC4)c(=O)c3)cc2s1)C1CCOCC1`, the IC50 in test [8] was 7940 nM; in test [1], 2510 nM; in test [2], > 200 µM; in test [3] it was > 200 µM; in test [4], > 200 µM; in test [5], > 200 µM. In addition, the 50% inhibitory concentration (IC50) was 39.8 nM in test [6] and 25.1 µM in test [7].
Take `O=c1cc(-c2ccc3nc(NCC4CCS(=O)(=O)CC4)sc3c2)ccn1CC1CC1`: the IC50 in test [8] is 631 nM; in test [1] it was 631 nM; in test [2], > 200 µM; in test [3], 79.4 µM; in test [4], > 200 µM; in test [5], 50.1 µM. In addition, the IC50 was 2 nM in test [6] and > 100 µM in test [7].
For the compound `O=c1cc(-c2ccc3nc(NC[C@H]4CC[C@H](C(=O)O)CC4)sc3c2)ccn1CC1CC1`, the IC50 was 316 nM in test [8]; 251 nM in test [1]; > 200 µM in test [2]; 100 µM in test [3]; > 79.4 µM in test [4]; 10 µM in test [5]. The IC50 in test [6] is 1 nM.

These data come from ChEMBL document CHEMBL3600363, “Discovery of potent, selective small molecule inhibitors of α-subtype of type III phosphatidylinositol-4-kinase (PI4KIIIα)” (Bioorg Med Chem Lett, 2015).
